Test results from patent US11345914B2, “Composition for delivering nucleic acid and nucleic acid-containing composition” (TOKYO UNIVERSITY OF PHARMACY AND LIFE SCIENCES, priority 2017, dated 2022).

Test system: CIA (Collagen-Induced Arthritis) Mouse
Assay: In vivo evaluation arthritis treatment effect of CIA mice
Settings: until 15th day, siRNA (RelA) 20 μg/day tail vein (composition as Example 24, N/P 20), MTX 90 μg intraperitoneal
Method: Under ice-cooling, while adding an equal amount of type II collagen solution (2 mg/mL) dropwise to complete Freund's adjuvant (CFA), the mixture was homogenized to prepare an emulsion. Similarly, while adding an equal amount of type II collagen solution (2 mg/mL) dropwise to incomplete Freund's adjuvant (IFA), the mixture was homogenized to prepare an emulsion. The prepared emulsion was confirmed to have formed a w/o type emulsion by maintaining a sphere even when it was dropped on the water surface, and was used in the experiment.
Using 8-weeks old male DBA/1J mice, CIA mice were prepared. In the following, the schedule for preparing CIA mice is shown. 100 μL of the emulsion obtained from type II collagen and CFA prepared at −21′ day was intradermally administered to the tail root portion to carry out induction of the first immunization. 100 μL of the emulsion obtained from type II collagen and […] prepared at 0th day was similarly intradermally administered to carry out additional induction of the immunization. At this time, the intradermal administration was carried out reliably was confirmed by the fact that the administered site was protruded with white. […]
Thickening of the hindlimb ankle joint portion was measured by using a micrometer. […]
Clinical score was calculated as follows. […]

With `CN(Cc1cnc2nc(N)nc(N)c2n1)c1ccc(C(=O)N[C@@H](CCC(=O)O)C(=O)O)cc1` [MTX, methotrexate] the “thickening increasing rate of the hindlimbs” value (FIG. 4) was “thickening of the hindlimbs was admitted” and the clinical score (FIG. 5) was “remarkable increase in the clinical score was admitted”.
